Source: US9232796B2, “Herbicidal compositions comprising 4-amino-3-chloro-5-fluoro-6-(4-chloro-2-fluoro-3-methoxyphenyl) pyridine-2-carboxylic acid or a derivative thereof and acetyl-CoA carboxylase (ACCase) inhibitors” (DOW AGROSCIENCES LLC, priority 2012, dated 2016)

Tests used:
CYPIR = test: Example I postemergence foliar-applied, greenhouse, direct seeded rice weeds; assay type: in vivo, Cyperus iria L.
Source text: Seeds or nutlets of the desired test plant species were planted in a soil matrix prepared by mixing a loam or sandy loam soil (e.g., 28.6 percent silt, 18.8 percent clay, and 52.6 percent sand, with a pH of about 5.8 and an organic matter content of about 1.8 percent) and calcareous grit in an 80 to 20 ratio. The soil matrix was contained in plastic pots with a volume of 1 quart and a surface area of 83.6 square centimeters (cm^2). When required to ensure good germination and healthy plants, a fungicide treatment and/or other chemical or physical treatment was applied. The plants were grown for 8-22 days in a greenhouse with an approximate 14 hr. photoperiod which was maintained at about 29° C. during the day and 26° C. during the night. Nutrients (Peters Excel® 15-5-15 5-Ca 2-Mg and iron chelate) were applied in the irrigation solution as needed and water was added on a regular basis. Supplemental lighting was provided with overhead metal halide 1000-Watt lamps as necessary. The plants were employed for testing when they reached the first through fourth true leaf stage.
Treatments consisted of the acid or esters of 4-amino-3-chloro-5-fluoro-6-(4-chloro-2-fluoro-3-methoxy-phenyl)pyridine-2-carboxylic acid (Compound A), each formulated as an SC (suspension concentrate), and various herbicidal components alone and in combination.
Other herbicidal components were applied on an acid equivalent (ae) or active ingredient (ai) basis and included acetyl coA carboxylase (ACCase)-inhibiting herbicides (cyclohexanedione and aryloxyphenoxypropionate chemical classes) cyhalofop-butyl formulated as Clincher® SF (285 gr ai/L EC), diclofop-methyl formulated as Hoelon® 3EC, fenoxaprop-p-ethyl+isoxadifen-ethyl formulated as RiceStar® HT (0.58 lb./gal EC), fenoxaprop-p-ethyl+mefenpyr diethyl formulated as Puma® IEC, metamifop formulated as Metamifop EC, haloxyfop-methyl formulated as Gallant Super®, fluazifop-p-butyl formulated as Fusilade® DX, quizalofop-p-ethyl formulated as Assure® II, profoxydim formulated as Aura® 20EC, clethodim applied as Intensity®, sethoxydim formulated as Poast®, and tralkoxydim formulated as Achieve®.
(§1) Treatment requirements were calculated based upon the rates being tested, the concentration of active ingredient or acid equivalent in the formulation, and a 12 mL application volume at a rate of 187 L/ha.
(§2) For treatments comprised of formulated compounds, measured amounts of compounds were placed individually in 25 mL glass vials and diluted in a volume of 1.25% (v/v) Agri-Dex® crop oil concentrated to obtain 12× stock solutions. […] Application solutions were prepared by adding an appropriate amount of each stock solution (e.g., 1 mL) and diluted to the appropriate final concentrations with the addition of 10 mL of an aqueous mixture of 1.25% (v/v) crop oil concentrate so that the final spray solutions contained 1.25+/−0.05% (v/v) crop oil concentrate.
(§3) All stock solutions and applications solutions were visually inspected for compound compatibility prior to application. Spray solutions were applied to the plant material with an overhead Mandel track sprayer equipped with a 8002E nozzles calibrated to deliver 187 L/ha over an application area of 0.503 m^2 at a spray height of 18 to 20 inches (46 to 50 cm) above average plant canopy height. Control plants were sprayed in the same manner with the solvent blank.
The treated plants and control plants were placed in a greenhouse as described above and watered by sub-irrigation to prevent wash-off of the test compounds. After approximately 3 weeks, the condition of the test plants as compared with that of the untreated plants was determined visually and scored on a scale of 0 to 100 percent where 0 corresponds to no injury or growth inhibition and 100 corresponds to complete kill. […]

ECHCG [1] = test: Example VI in-water applied ternary mixtures, greenhouse, transplanted paddy rice weeds; assay type: in vivo, Echinochloa crus-galli (L.) Beauv.
Method: (§4) Weed seeds or nutlets of the desired test plant species were planted in puddled soil (mud) prepared by mixing a shredded, non-sterilized mineral soil (50.5 percent silt, 25.5 percent clay, and 24 percent sand, with a pH of about 7.6 and an organic matter content of about 2.9 percent) and water at a 1:1 volumetric ratio. The prepared mud was dispensed in 365 mL aliquots into 16-ounce (oz.) non-perforated plastic pots with a surface area of 86.59 square centimeters (cm^2) leaving a headspace of 3 centimeters (cm) in each pot. Mud was allowed to dry overnight prior to planting or transplanting. Rice seeds were planted in Sun Gro MetroMix® 306 planting mixture, which typically has a pH of 6.0 to 6.8 and an organic matter content of about 30 percent, in plastic plug trays. Seedlings at the second or third leaf stage of growth were transplanted into 860 mL of mud contained in 32-oz. non-perforated plastic pots with a surface area of 86.59 cm^2 4 days prior to herbicide application. The paddy was created by filling the headspace of the pots with 2.5 to 3 cm of water. When required to ensure good germination and healthy plants, a fungicide treatment and/or other chemical or physical treatment was applied. The plants were grown for 4-22 days in a greenhouse with an approximate 14 hr. photoperiod which was maintained at about 29° C. during the day and 26° C. during the night. Nutrients were added as Osmocote® (19:6:12, N:P:K+minor nutrients) at 2 g per 16-oz. pot and 4 g per 32-oz. pot. Water was added on a regular basis to maintain the paddy flood, and supplemental lighting was provided with overhead metal halide 1000-Watt lamps as necessary. The plants were employed for testing when they reached the first through fourth true leaf stage.
(§5) Treatments consisted of the benzyl ester of 4-amino-3-chloro-5-fluoro-6-(4-chloro-2-fluoro-3-methoxy-phenyl)pyridine-2-carboxylic acid (Compound A), formulated as an SC (suspension concentrate), an ACCase inhibitor herbicide, and a third herbicidal component, each applied alone and in ternary combination. Forms of compound A were applied on an acid equivalent basis.
(§6) The ACCase inhibitor component was applied on an active ingredient basis and included cyhalofop-R-butyl formulated as Clincher® G and metamifop formulated as Metamifop EC. Other herbicidal components were applied on an active ingredient or acid equivalent basis depending on the compound and included penoxsulam formulated as Grasp® SC, bentazon sodium formulated as Basagran®, triclopyr […] (TEA) salt formulated as Grandstand® R, benzobicyclon formulated as Benzobicyclon, benfuresate formulated as Full Slot® WG, pyraclonil formulated as Pyraclon® Flowable, mefenacet (technical grade material), and pretilachlor (technical grade material).
(§7) Treatment requirements for each compound or herbicidal component were calculated based upon the rates being tested, the concentration of active ingredient or acid equivalent in the formulation, an application volume of 1 mL per component per pot, and an application area of 86.59 cm^2 per pot.
(§8) For formulated compounds, a measured amount was placed in an individual 100 or 200 mL glass vial and was dissolved in a volume of 1.25% (v/v) Agri-Dex® crop oil concentrate to obtain application solutions.
(§9) For technical grade compounds, a weighed amount was placed in an individual 100 to 200 mL glass vial and was dissolved in a volume of acetone to obtain concentrated stock solutions.
(§10) Applications were made by injecting with a pipetter appropriate amounts of the application solutions, into the aqueous layer of the paddy. Control plants were treated in the same manner with the solvent blank. Applications were made so that all treated plant material received the same concentrations of acetone and crop oil concentrate.
(§11) The treated plants and control plants were placed in a greenhouse as described above and water was added as needed to maintain a paddy flood. […]

CYPRO = test: as above; assay type: in vivo, Cyperus rotundus L.; settings: 21 DAA
Method: as §4, §5, §6, §7, §8, §9, §10, §11

FIMMI = test: as above; assay type: in vivo, Fimbristylis miliacea (L.) Vahl
Method: as §4, §5, §6, §7, §8, §9, §10, §11

IPOHE = test: Example V (second) postemergence foliar-applied ternary mixtures, greenhouse, direct seeded rice weeds; assay type: in vivo, Ipomoea hederacea Jacq.
Method: The treated plants and control plants were placed in a greenhouse as described above and watered by sub-irrigation to prevent wash-off of the test compounds. After approximately 3 weeks, the condition of the test plants as compared with that of the untreated plants was determined visually and scored on a scale of 0 to 100 percent where 0 corresponds to no injury or growth inhibition and 100 corresponds to complete kill.
Colby's equation was used to determine the herbicidal effects expected from the mixtures (Colby, S. R. 1967. Calculation of the synergistic and antagonistic response of herbicide combinations. Weeds 15:20-22.).
The following equation was used to calculate the expected activity of mixtures containing three active ingredients, A, B, and C: Expected=A+B+C−((A×B+A×C+B×C)/100)+(A×B×C/10000)

ECHCG [2] = test: as above; assay type: in vivo, Echinochloa crus-galli (L.) Beauv.; settings: 200 gai/ha
Source text: Seeds or nutlets of the desired test plant species were planted in a soil matrix prepared by mixing a sandy loam or loam soil (e.g., 32 percent silt, 23 percent clay, and 45 percent sand, with a pH of about 6.5 and an organic matter content of about 1.9 percent) and calcareous grit in an 80 to 20 ratio. The soil matrix was contained in plastic pots with a volume of 1 quart and a surface area of 83.6 square centimeters (cm^2). When required to ensure good germination and healthy plants, a fungicide treatment and/or other chemical or physical treatment was applied. The plants were grown for 8-22 days in a greenhouse with an approximate 14 hr. photoperiod which was maintained at about 29° C. during the day and 26° C. during the night. Nutrients (Peters Excel® 15-5-15 5-Ca 2-Mg and iron chelate) were applied in the irrigation solution as needed and water was added on a regular basis. Supplemental lighting was provided with overhead metal halide 1000-Watt lamps as necessary. The plants were employed for testing when they reached the first through fourth true leaf stage.
as §5, with “inhibitor,” for “inhibitor herbicide,”
The ACCase inhibitor component was applied on an active ingredient basis and included cyhalofop-R-butyl formulated as Clincher® SF, fenoxaprop-p-ethyl formulated as RiceStar® HT, and profoxydim formulated as Aura® 20EC. Other herbicidal components were applied on an active ingredient or acid equivalent basis depending on the compound and included penoxsulam formulated as Grasp® SC, bentazon sodium formulated as Basagran®, triclopyr […] (TEA) salt formulated as Grandstand® R, bispyribac sodium formulated as Regiment® 80WP, imazamox ammonium formulated as Beyond®, benzobicyclon, quinclorac formulated as Facet® 75DF, glyphosate dimethylammonium (DMA) salt formulated as Durango® DMA, glufosinate ammonium formulated as Ignite® 280, fentrazamide formulated as an emulsifiable concentrate (EC), propyrisulfuron formulated as Zeta One®, and indanofan (technical grade material).
as §1
as §2, with “concentrate” for “concentrated”, “9” for “10”, “1.25%” for “1.25+/−0.05%”
As required, additional water and/or 97:3 v/v acetone/DMSO was added to individual application solutions so that the final acetone and DMSO concentrations of the application solutions being compared were 8.1% and 0.25%, respectively.
as §3, with “18” for “18 to 20”, “(46” for “(46 to 50”
The treated plants and control plants were placed in a greenhouse as described above and watered by sub-irrigation to prevent wash-off of the test compounds. […]

In the case of `COC(=O)C(C)Oc1ccc(Oc2ccc(Cl)cc2Cl)cc1` (stereo not shown) [Diclofop-methyl, methyl 2-[4-(2,4-dichlorophenoxy)phenoxy]propanoate], the “Visual Weed Control (%) - 22 DAA CYPIR Obs” value (CYPIR; 280 gai/ha) is reported as 0%, the “Visual Weed Control (%) - 22 DAA CYPIR Obs” value (CYPIR; 560 gai/ha) is reported as 0% and the “Visual Weed Control (%) - 22 DAA CYPIR Obs” value (CYPIR; 1120 gai/ha) is reported as 0%.
In the case of `CCS(=O)(=O)Oc1ccc2c(c1)C(C)(C)CO2` [Benfuresate], the “Visual Weed Control (%) - 21 DAA ECHCG Obs” value (ECHCG [1]; 150 gai/ha) is reported as 0%.
For `CCCOCCN(C(=O)CCl)c1c(CC)cccc1CC` [Pretilachlor], the “Visual Weed Control (%) - 21 DAA CYPRO Obs” value (CYPRO; Table 70, 25 gai/ha) was 0% and the “Visual Weed Control (%) - 21 DAA CYPRO Obs” value (CYPRO; Table 70, 50 gai/ha) was 0%.
For `CC(C)N1C(=O)c2ccccc2NS1(=O)=O` [Bentazon Sodium], the “Visual Weed Control (%) - 21 DAA ECHCG Obs” value (ECHCG [1]; 210 gae/ha, first set) was 0%, the “Visual Weed Control (%) - 21 DAA ECHCG Obs” value (ECHCG [1]; 420 gae/ha, second set) was 15% and the “Visual Weed Control (%) - 21 DAA FIMMI Obs” value (FIMMI; 210 gae/ha, first set) was 17%. The “Visual Weed Control (%) - 21 DAA FIMMI Obs” value (FIMMI; 420 gae/ha, second set) was 30%.
In the case of `CC(C)N1C(=O)c2ccccc2NS1(=O)=O` [Bentazon sodium], the “Visual Weed Control (%) - 21 DAA IPOHE Obs” value (IPOHE; 420 gae/ha, lower sub-table) is reported as 75% and the “Visual Weed Control (%) - 21 DAA IPOHE Obs” value (IPOHE; 420 gae/ha, upper sub-table) is reported as 53%.
For `CN(C(=O)COc1nc2ccccc2s1)c1ccccc1` [Mefenacet], the “Visual Weed Control (%) - 21 DAA CYPRO Obs” value (CYPRO; Table 69, 75 gai/ha) was 0% and the “Visual Weed Control (%) - 21 DAA CYPRO Obs” value (CYPRO; Table 69, 150 gai/ha) was 0%.
For `CS(=O)(=O)c1ccc(C(=O)C2=C(Sc3ccccc3)C3CCC(C3)C2=O)c(Cl)c1` (stereo not shown) [Benzobicyclon], the “Visual Weed Control (%) - 21 DAA IPOHE Obs” value (IPOHE; 200 gai/ha) was 55% and the “Visual Weed Control (%) - 21 DAA ECHCG Obs” value (ECHCG [2]) was 0%.
